Laboratory results as given in patent US20010005752A1, “Fluorescent dyes (AIDA) for solid phase and solution phase screening” (priority 1998, published 2001).

What was measured:
[1] = Picosecond time-resolved fluorescence spectroscopy (fluorescence lifetime); assay type: physicochemical; details: 25 μM in THF, emission 400 nm
Protocol: Picosecond time-resolved fluorescence measurements are recorded according to the single photon counting technique [Lakowicz, 1983 p 52-93, 112-153, 156-185]. An Ar^+-pumped Ti:Sapphire laser (model MIRA 900, Coherent, Santa Clara, USA) provided under mode-locked conditions ultrashort pulses (FWHM=150 fs) with a frequency of 75 MHz. To reduce the repetition rate to 4.7 MHz, a pulse picker (model 9200, Coherent, Santa Clara, USA) is inserted into the beam. […] Fluorescence photons are collected in a Spex 1681 single grating monochromator (Spex, Edison, USA) and detected with the Hamamatsu R3809U microchannel plate (Hamamatsu, Shimokanzo, Japan). […] The voltage values which correspond to the time passed between excitation and emission of a fluorescence photon in a single experiment are stored in the Spectrum Master 921 (Ortec, Oak Ridge, USA) which is connected to the multichannel emulation program Maestro (Ortec, Oak Ridge, USA). […]
where A represents the background noise of the experiment, bi represent the pre-exponential terms of the according fluorescence lifetimes τi, and δt is an optional temporal shift term to compensate for shifts of the instrument response. […]
The time resolved decay of 4e is determined at a concentration of 25 μM in THF. Excitation is from 350 nm 380 nm, fluorescence emission is detected at 400 nm with slit widths set to 0.5 nm. […]

[2] = Steady-state fluorescence spectroscopy (excitation and emission spectra); assay type: physicochemical; details: for Emission range in parenthesis / Emission λmax / Excitation range in parenthesis / Excitation λmax: acetonitrile/2% DMSO
Protocol: Steady-state fluorescence measurements are performed on a SLM 8000C spectro-fluorometer equipped with JD490 photomultipliers and a 450 W Xenon Arclamp (SLM Instruments, Urbana, Ill.).
[…] Spectral bandwidths are set to 1 and 4 nm for excitation and emission, respectively. Spectra are recorded in single photon counting mode. Changes in lamp intensity are corrected with a quantum counter in the reference channel, measured in slow mode. Gain is set to x 100 with a high voltage (HV) of 640 V. Integration time is 2 seconds. For excitation spectra measurements, the emission wavelength is set to 397 nm and the sample is excited from 200 to 400 nm. For recording emission spectra, the sample is excited at 342 nm and the emission is recorded from 350 to 540 nm. The data are averaged over two scans.

[3] = Calculation of R0 (Förster distance) between 4e and NATA; assay type: physicochemical; details: 4e acceptor, NATA donor, THF
Protocol: The emission spectrum of NATA is measured at a concentration of 15 μM in THF, using a 750 μl quartz cuvette with an optical pathlength of 10 mm. Measuring mode is single photon counting. Changes in lamp intensity are corrected using a quantum counter in the reference channel. The gain is set at x 100, the high voltage applied was 640 V and the integration time is 2 seconds. The fluorescence emission is corrected for photometric accuracy of the system by multiplication with correction factors obtained by standard lamp calibration. Slit widths are set at 1 nm and 4 nm for excitation and emission, respectively. […] R0 is calculated using the formula R0=(9.97×10^3)(Jκ^2η^-4 θNATA)^1/6 Å where κ^2 is an orientation factor of the relative orientation in space of the transition dipoles of the donor and acceptor chromophores. […] J is the spectral overlap integral which can be approximated from […](λ)λ^4Δλ (2) where FNATA is the corrected fluorescence emission of the donor, the sum normalized to unity, ε4e is the extinction coefficient of the acceptor at wavelength λ, and DS is the incremental detection range.

[4] = Quantum yield determination with chininsulfate as standard; assay type: physicochemical; details: 25 μM in THF
Protocol: The quantum yield of 4e is determined using chininsulfate as a standard [Melhuish, 1961].
The point of intersection between the UV spectra of 4e and chininsulfate (CS) is determined by measurements of a solution of the two substances on a Cary 1E spectrophotometer. Concentrations were 25 μM in THF for 4e and 50 mM in 1N H2SO4 for CS. Spectra are recorded from 260 nm to 380 nm using a quartz cuvette with an optical pathlength of 10 mm, and blank corrected by subtracting the solvent absorption. The point of intersection of the two resulting UV spectra is determined to be at 348.3 nm, corresponding to 352.8 nm on the SLM-8000 C fluorometer due to monochromator shifts. The fluorescence emission spectra of 4e and CS are recorded using the same solutions as for the UV-measurements in single photon counting mode. Lamp intensity changes are corrected with a quantum counter in the reference channel, measured in slow mode. Gain is set at x 100, high voltage applied was 830 V. Integration time was 0.5 seconds.
Spectral bandwidths are set at 1 nm for excitation, 2 nm and 4 nm for emission.
For the recording of the emission spectra, excitation is set to 352.8 and emission is monitored from 360 to 550 nm for IAE and 360 to 650 nm for CS.

[5] = UV-Vis absorption spectroscopy; assay type: physicochemical; details: for Absorption λmax / ε (at absorption λmax): acetonitrile/2% DMSO
Protocol: UV-Vis absorption spectroscopy is performed on a Cary 1E spectrophotometer. […]
[…] […] From each stock solution, 5 dilutions with concentrations of 2.5 μm, 10 μM, 17 μM, 25 μm and 35 μM are made. UV-spectra of each dilution are recorded from 200 to 400 nm, using a quarz cuvette with a pathlength of 1 cm. […] A linear fit is carried out for each series of measurements. The extinction coefficient ε at 337 nm is given by the slope of the linear regression.

[6] = biological target: T1, avidin-BODIPY-FL (Gallus gallus, UniProt P02701); experiment: FRET / quenching with avidin-BODIPY-FL (AIDA donor, BODIPY-FL acceptor); assay type: binding; details: standard definition, stated as not valid here
T1 construct: BODIPY FL (chemical fluorescent label, about 3.3 per avidin); purchased Molecular Probes (Eugene, Oreg.) A-2641
Protocol: (§1) For solubility reasons, 4e is spectroscopically characterized in THF. All complexation reactions and fluorescence resonance energy transfer measurements are performed in PBS/5% DMSO at 25° C., unless indicated otherwise.
(§2) Spectral bandwidths are set to 8 and 16 nm for excitation and emission, respectively. Measurements are performed at 25° C. in a 750 μL quartz cuvette (10 mm optical pathlength) without stirring after initial mixing. A concentration of 50 nM of 9 or 11 is used for complexation with 1 μM of (fluorescent) avidin. […] All titrations are performed in magic angle setting, with the emission wavelength set to […] in experiments where the indazole is the acceptor, and with an excitation spectrum recorded from 250 nm to 360 nm. In experiments where indazole is used as donor and Lucifer Yellow or BODIPY FL is the acceptor, the excitation wavelength is set to 338 nm or 325 nm. The fluorescence emission is collected between 360 nm and 700 nm. The spectra are corrected for Raman scattering from the PBS solution, for dilution, and for inner filter effects due to protein additions, The signal is adjusted for lamp intensity changes by ratio mode detection with a Rhodamine B quantum counter in the reference channel. A WG 360 emission cutoff filter is used for straylight reduction. Data are collected in 2 nm increments with 1 second integration time.
In these experiments 11 was used as donor and BODIPY-FL as acceptor. At an excitation wavelength of 338 nm the emission of 11 between 360 nm and 516 nm is strongly quenched by approximately 80% in the complexed form. The standard definition for energy transfer efficiency, E=1−Fda/Fd, would result in E≅0.8. […] The approximately 80% reduction in signal intensity of 11 can be caused either by FRET or from local quenching of the fluorescence of 11 mainly by ground state interactions. […] Due to the broad fluorescence emission of 11 in water the detection wavelength can be shifted up to 500 nm which is at lower energy than most background fluorescence signals from small chemical compounds.

[7] = biological target: T2, BODIPY-FL labelled avidin (Gallus gallus, UniProt P02701); experiment: Fluorescence anisotropy with BODIPY-FL labelled avidin; assay type: binding; details: 50 nM conjugate, 1 μM BODIPY-FL labelled avidin
T2 construct: BODIPY FL (chemical fluorescent label, about 3.3 per avidin); purchased Molecular Probes (Eugene, Oreg.) A-2641
Protocol: as §1
(§3) Fluorescence anisotropy is calculated according to [Lakowicz, 1983].
(§4) Spectral bandwidths are set to 4 and 8 nm for excitation and emission, respectively, with 5 seconds integration time. For calculation of fluorescence anisotropy ten data points are averaged.
(§5) This value is indicative for a small monomeric molecule rotating free in solution. […] When 1 μM of the BODIPY-FL labelled avidin was used as substrate the r-value was 0.100. This reduced change in anisotropy probably reflects the lower affinity of the BODIPY-FL labelled avidin as compared to the unlabelled material.

[8] = biological target: T3, avidin (Gallus gallus, UniProt P02701); experiment: FRET / quenching with unlabelled avidin (tryptophan donor, AIDA acceptor); assay type: binding
T3 construct: purchased Molecular Probes (Eugene, Oreg.) A-2767
Protocol: as §1, §2
An emission wavelength at 480 nm was chosen because the tryptophan fluorescence of avidin had almost reached the baseline level at this emission energy, resulting in only minor avidin fluorescence contribution between 250 and 370 nm. […] This quenching effect can be attributed to all radiative and non-radiative processes occurring to 11 in the vicinity of the tryptophans in the binding cleft. Corresponding to the ratio of the negative and positive areas under the fluorescence difference curve (black), 62% of this total quenching effect is fluorescence resonance energy transfer. From 250 to 305 nm the enhancement of the tryptophan and tyrosine fluorescence intensity is 72% based on the sum of 11 and avidin.

[9] = biological target: T3, avidin; experiment: Fluorescence anisotropy as signal for binding to avidin
Protocol: as §1, §3, §4, §5

T3 sequence (P02701 25-152): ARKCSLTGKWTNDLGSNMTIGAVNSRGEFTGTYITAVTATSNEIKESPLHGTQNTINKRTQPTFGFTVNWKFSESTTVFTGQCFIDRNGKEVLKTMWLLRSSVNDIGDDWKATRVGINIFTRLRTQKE
T2 sequence (P02701 25-152): as above
T1 sequence (P02701 25-152): as above

With `C=CCOC(=O)c1ccc(-c2nn(-c3ccc(C(=O)O)cc3)c3ccccc23)cc1` [4e, 4-[3-(4-allyloxycarbonylphenyl)-1H-indazol-1-yl]-benzoic acid] the “fluorescence lifetime (mono-exponential decay)” value [1] was 1.055±0.117 nsec, the “relative amplitude of lifetime component” value [1] was 99.73% and the “photophysical and photochemical stability” value [2] was “photophysically and photochemically stable”. For the same compound, the “maximal emission intensity (wavelength)” value ([2]; 1 μM in THF, excitation at 342 nm) was 403 nm, the Stoke shift ([2]; THF) was “about 60 nm” and the “Emission range in parenthesis” value [2] was 360-480 nm. For the same compound, the “Emission λmax” value [2] was 398 nm, the “Excitation range in parenthesis” value [2] was 310-360 nm and the “Excitation λmax” value [2] was 337 nm. For the same compound, the “R0 (Förster distance) of the dye pair with NATA” value [3] was 25.2 - 26.3 Å, the quantum yield [4] was 0.591 and the absorption maximum ([5]; THF) was 342 nm. The “absorption coefficient ε at 337 nm” value ([5]; THF, 337 nm) was 29926 M⁻¹ cm⁻¹, the “Absorption λmax” value [5] was 335 nm and the “ε (at absorption λmax)” value [5] was 34134 M⁻¹ cm⁻¹.
For `C=CCOC(=O)c1ccc(-c2nn(-c3ccc(C(=O)N[C@@H](CCCCNC(=O)CCCCC4SCC5NC(=O)NC54)C(=O)O)cc3)c3ccccc23)cc1` (some centres unmarked) [compound 11], the “energy transfer efficiency E=1−Fda/Fd” value [6] was about 0.8, the “fluorescence anisotropy (r-value) with BODIPY-FL labelled avidin” value [7] was 0.100 and the emission maximum ([2]; 50 nM, PBS/5% DMSO, excitation 338 nm) was 438 nm. The “emission intensity at 500 nm” value ([2]; PBS buffer, 500 nm) was “about 50%”, the “Emission range in parenthesis” value [2] was 370-480 nm and the “Emission λmax” value [2] was 397 nm. The “Excitation range in parenthesis” value [2] was 310-360 nm, the “Excitation λmax” value [2] was 336 nm and the “quenching of conjugate fluorescence by complexation in the avidin binding site” value ([8]; 50 nM conjugate, 1 μM unlabelled avidin, emission 480 nm) was “about 25.5%”. The “enhancement of tryptophan and tyrosine fluorescence intensity” value ([8]; 250 to 305 nm, based on the sum of 11 and avidin) was 72%, the “tryptophan to conjugate energy transfer relative to free avidin plus 11” value ([8]; detected at 480 nm) was 70% and the “part of total quenching effect that is fluorescence resonance energy transfer” value ([8]; ratio of negative and positive areas under difference curve) was 62%. For the same compound, the “change of anisotropy on binding to avidin” value ([9]; 50 nM conjugate, 1 μM avidin) was “+444%”, the “fluorescence anisotropy bound to avidin” value ([9]; 50 nM conjugate, 1 μM avidin) was 0.151 and the “basic fluorescence anisotropy (free conjugate)” value ([9]; 50 nM, excitation 338 nm, emission 438 nm, no avidin) was 0.034. For the same compound, the “Absorption λmax” value [5] was 334 nm and the “ε (at absorption λmax)” value [5] was 34349 M⁻¹ cm⁻¹.
